Where a SMILES comes first, the peptide text is derived from it.
How the values were obtained:
[1] = test system: SH-SY5Y cells; format: cell-based, mouse; conditions: 48 h hypoxia, MTT
Procedure: Autophagy is an integrated stress response that clears the subcellular damages. Previous studies have shown that such damages can be induced by hypoxia and hypoxia-reoxygenation stress. Clearing subcellular damages would increase survivability. In traditional medicine, G. biloba is used as an herbal remedy for acute ischemic stroke and post-stroke recovery. To examine the effects of β-gB1 in hypoxia stress, we used cardio-myoblast H9c2 and SH-SY5Y cells. Cells were cultured with or without β-gB1 and incubated in a hypoxic environment for 48 h before the assessment of cell survival by the MTT assay. […] Importantly, when the concentration of β-gB1 was reduced tenfold from 10 to 1 µM, a 22–24% increase of survivability was still observed in H9c2 and SH-SY5Y cells (Figure 3A–D). […]
Cells were cultured in DMEM with or without β-gB1/S-alkylated β-gB1 (β-gB1Alk) for 48 h under normoxia, hypoxia, and hypoxia-reoxygenation conditions. […] The culture medium was then aspirated, and purple formazan crystals were dissolved in DMSO for colorimetric quantification at 570 nm using a microplate reader with a reference wavelength of 630 nm. […]

[2] = test system: BHK (baby hamster kidney) cell line; conditions: MTT assay; cited from earlier work
Text: (§1) In addition, β-gB1 is non-toxic to Vero and BHK (baby hamster kidney) cell lines based on an MTT assay. […] LDH is a cytoplasmic enzyme which is rapidly released int ...

[3] = test system: Vero cell line; conditions: MTT assay; cited from earlier work
Text: as §1

[4] = test system: Candida albicans; conditions: concentrations up to 100 µM; cited from earlier work
[5] = Enzymatic (proteolytic) stability against trypsin; format: in vitro ADME; conditions: isolated enzyme trypsin; 800 U/mL trypsin, 0.1 M ammonium bicarbonate buffer pH 7.8, 37 °C, 6 h; 28 µg peptide in 100 µL; MALDI-TOF MS and C18 RP-HPLC; read-out: Peptide remaining intact after trypsin treatment
Procedure: To assess the proteolytic stability of β-gB1, it was treated with trypsin or pepsin for 6 h. […] Similarly, the S-alkylated β-gB1 was degraded completely by pepsin within 30 min. […] This is in agreement with other plant CRPs that contain a compact structure, whose proteolytic stability was examined up to six hours treatment.
The folded β-gB1 (28 µg) was added to 100 μL of a 0.1 M ammonium bicarbonate buffer (pH 7.8) containing 800 U/mL of trypsin or 4 mg/mL of pepsin and incubated at 37 °C for 6 h. At each time-point (0, 1, 2, 4, and 6 h), 20 µL of the treated sample was aliquoted and quenched by adding 5 µL of 1 M hydrochloric acid or 0.8 μL of 1 M sodium hydroxide. The reduced β-gB1 was alkylated with iodoacetamide (S-alkylated β-gB1) and used as a control in this study. The reaction mixture was analyzed by MALDI-TOF MS and C18-reversed-phase HPLC to determine its stability.

[6] = Thermal stability by far-UV circular dichroism spectroscopy; format: physicochemical; conditions: heating up to 90 °C (20, 55, 90 °C); 42 µM peptide in sodium phosphate buffer pH 7.5; 190-260 nm
Procedure: The secondary structure and thermal stability of the synthetic β-gB1 were assessed using circular dichroism (CD) spectroscopy. The far-UV CD data of β-gB1 were acquired at 20 °C, and secondary structure composition was predicted using the CDSSTR algorithm with a normalized root mean square deviation (RMSD) value of 0.021. The CD spectroscopy spectra agreed with the predicted secondary structure of folded β-gB1, which consists 28% strands, 16% turns, 1% helices, and 55% unordered structures (Figure 1A). The spectrum is in strike contrast with that of the S-reduced β-gB1, which is devoid of a secondary structure (Figure 1A).
Far-UV CD spectra were recorded for the synthetic and folded β-ginkgotide β-gB1 (42 µM) in a sodium phosphate buffer (pH 7.5) on a Chirascan™ CD spectrometer (Applied Photophysics, Leatherhead, UK) equipped with a temperature controller. Spectra were acquired between 190 and 260 nm from 20 to 90 °C using a 1 mm path-length quartz cuvette, a 1 nm spectral bandwidth, and a 1 nm step size. CD spectroscopy data were analyzed for secondary structure content using CDSSTR [23]. CD data were expressed as mean residue ellipticity (in deg cm^2dmol^−1).

[7] = test system: SH-SY5Y cells; experiment: Hypoxia-reoxygenation injury, MTT assay, SH-SY5Y; format: cell-based, human; conditions: 1 µM peptide, 24 h hypoxia then 24 h normoxia, triplicates
Procedure: Cells were cultured with or without β-gB1 and its S-alkylated β-gB1, first under the hypoxic condition for 24 h and then at a normal oxygen environment for another 24 h. The cell viability under hypoxia-reoxygenation condition was assessed by the MTT assay.
Rat cardio-myoblast cells (H9c2) and […] neuron-like SH-SY5Y cells were purchased from ATCC and maintained in DMEM (Dulbecco’s modified eagle medium) medium supplemented with 10% fetal bovine serum (FBS), 10,000 U/mL of penicillin, and 10,000 µg/mL of streptomycin at 37 °C, 5% CO2.
Cells were seeded in a cell culture medium with/without β-gB1 and incubated at 37 °C, 5% CO2 overnight. The next day, the cells were locked inside a BD GasPak EZ anaerobe pouch system (BD Diagnostics, MD) and incubated at 37 °C for the next 48 h for the hypoxia condition. In addition, the cells were cultured under a normal oxygenated environment for the normoxic control. In hypoxia-reoxygenation experiments, the cells were incubated for 24 h in hypoxic conditions before being incubated for another 24 h under normoxia.
Phosphate-buffered saline (PBS) was used as a vehicle control.

For `CC[C@H](C)[C@@H]1NC(=O)[C@@H]2CSSC[C@H](NC(=O)CNC(=O)[C@@H](NC(=O)[C@H](CCC(=O)O)NC(=O)[C@@H](N)Cc3ccc(O)cc3)[C@@H](C)O)C(=O)N[C@@H](CCCCN)C(=O)N[C@@H](CCCNC(=N)N)C(=O)N[C@H]3CSSC[C@@H](C(=O)O)NC(=O)[C@H](CSSC[C@H](NC3=O)C(=O)N[C@@H](Cc3ccc(O)cc3)C(=O)N[C@@H](CC(C)C)C(=O)N[C@@H](CC(=O)O)C(=O)N[C@@H](CCC(=O)O)C(=O)N[C@@H](Cc3ccc(O)cc3)C(=O)NCC(=O)N2)NC(=O)[C@H](CCCNC(=N)N)NC1=O` [β-gB1] (HELM PEPTIDE1{Y.E.T.G.C.K.R.C.C.Y.L.D.E.Y.G.C.I.R.C.C}$PEPTIDE1,PEPTIDE1,5:R3-16:R3|PEPTIDE1,PEPTIDE1,8:R3-20:R3|PEPTIDE1,PEPTIDE1,9:R3-19:R3$$$V2.0; N-terminus and C-terminus assumed), the “Increase of cell survivability under hypoxia” value ([1]; 1 µM peptide, range printed jointly for H9c2 and SH-SY5Y) is listed as 22–24%, the “Cytoprotective effect under hypoxia (in words)” value ([1]; 10 µM peptide, compared with 37% in H9c2) is listed as “comparable cytoprotective effect” and the “Toxicity to cell line” value [2] is listed as “non-toxic”. The “Toxicity to cell line” value [3] was “non-toxic”, the Antimicrobial effect [4] was “does not exhibit an antimicrobial effect” and the remaining at 6 h [5] was about 90%. The “Effect of heating on far-UV CD spectrum (thermal denaturation)” value [6] was “did not alter its CD spectrum” and the “Increase of cell survivability under hypoxia-reoxygenation” value [7] was 19%.

From PMC6651024, “LIR Motif-Containing Hyperdisulfide β-Ginkgotide is Cytoprotective, Adaptogenic, and Scaffold-Ready” (Molecules, 2019)
